According to patent publication US20240131352A1, “NON-INVASIVE CANCER TREATMENT” (SCIENTIA BIOTECH S.L, priority 2021, published 2024):
Where two headings read alike, the source gives them in different places. Marks after values point to notes of the source that are not given here.

Experiments:
[1] = system: AsPC1 (pancreatic adenocarcinoma, ATCC) cells; settings: for effect on viable AsPC1 cells of TTF+HT+GEM+PT: 25 μM gemcitabine + 20 μM pterostilbene minute 0 to 240 + TTF 200 kHz, 1.5 μT + HT 52° C. 20 min, all four in combination
Method: For TTF data the TT-Field applied was at 200 kHz for 240 mins (from minute 0 to minute 240) for a field intensity of 1.5 μT. For HT data the hyperthermia applied was 52° C. for 20 minutes (from minute 120 to minute 140). For PT data 20 uM of pterostilbene was applied from minute 0 to minute 240.
For TTF data, the TT-Field applied was at 200 kHz for 240 mins (from minute 0 to minute 240) for a field intensity of 1.5 μT. For HT data the hyperthermia applied was 52° C. for 20 minutes (from minute 120 to minute 140). For GEM data 25 μM of gemcitabine was applied from minute 0 to minute 240. For PT data 20 μM of pterostilbene was applied from minute 0 to minute 240.
(§2) For rows including “TTF”, a TT-Field was applied at 200 kHz for 240 mins (from minute 0 to minute 240) for a field intensity of 1.5 μT. For rows including “HT”, hyperthermia applied was at 42 ° C. for U87MG and 52° C. for AsPC1 and A2058 for 20 minutes (from minute 120 to minute 140).

[2] = system: U87MG cells; settings: 240 min + HT 42° C. 10 min; for effect on cell viability for U87MG cells: 20 μM compound minute 210 to 240 + TTF 300 kHz, about 8 μT; for effect on viable U87MG cells of TTF+HT+PT: 20 μM pterostilbene minute 120 to 240 + TTF 300 kHz, 8 μT
Method: The hyperthermia applied was 42° C. for 10 minutes (from minute 120 to minute 130). 20 μM of pterostilbene was applied for 120 minutes (from minute 120 to minute 240). […] The magnetic field was applied using a solenoid with approximately 100 μT magnetic flux density at the central axis of the solenoid. The solenoid was placed at a distance from the cell cultures such that the average field strength on the surface of the culture flasks where the cells were attached was 8 μT.
FIGS. 15B to 15F show microscopic images of in vitro U87MG cell cultures after exposed to different external treatments.
The data are means with standard deviation for four independent experiments. Data labelled * indicates a P value (student's t test) less than 0.01 compared to the control. Data labelled + indicates a P value (student's t test) less than 0.01 compared to the TTF-only data. Data labelled # indicates a P value (student's t test) less than 0.01 compared to the TTF+HT data.

[3] = system: PC-3 (prostate carcinoma); experiment: heating + tumour treating fields + PT in vitro, PC-3; assay type: cell-based; settings: PC-3, in vitro
Description: (§1) The effectiveness of therapy by heating in combination with tumour treating fields and exposure to PT is also observed in other cell lines in vitro, such as A2058 (melanoma), AsPC-1 (pancreas carcinoma), A549 (lung carcinoma), MCF-7 (mammary gland carcinoma), HT-29 (colorectal carcinoma), PC-3 (prostate carcinoma), SK-OV-3 (ovarian carcinoma and HepG2 (hepatocarcinoma).

[4] = system: HT-29 (colorectal carcinoma); experiment: heating + tumour treating fields + PT in vitro, HT-29; assay type: cell-based; settings: HT-29, in vitro
Description: as §1

[5] = system: HepG2 (hepatocarcinoma); experiment: heating + tumour treating fields + PT in vitro, HepG2; assay type: cell-based
Description: as §1

[6] = system: MCF-7 (mammary gland carcinoma); experiment: heating + tumour treating fields + PT in vitro, MCF-7; assay type: cell-based; settings: MCF-7, in vitro
Description: as §1

[7] = system: A2058 (melanoma, ATCC) cells
Method: For TTF data, the TT-Field applied was at 200 kHz for 240 mins (from minute 0 to minute 240) for a field intensity of 1.5 μT. For HT data the hyperthermia applied was 52° C. for 20 minutes (from minute 120 to minute 140). For PT data 20 μM of pterostilbene was applied from minute 0 to minute 240.
For TTF data, the TT-Field applied was at 200 kHz for 240 mins (from minute 0 to minute 240) for a field intensity of 1.5 μT. For HT data the hyperthermia applied was 52° C. for 20 minutes (from minute 120 to minute 140). For PAC data 10 μM of paclitaxel was applied from minute 0 to minute 240.
as §2

[8] = system: C6; experiment: TTF+HT+PT therapy on glioblastoma line C6; assay type: cell-based; settings: compared with U87MG
[9] = system: SK-OV-3 (ovarian carcinoma); experiment: heating + tumour treating fields + PT in vitro, SK-OV-3; assay type: cell-based; settings: SK-OV-3, in vitro
Description: as §1

[10] = system: GL261; experiment: TTF+HT+PT therapy on glioblastoma line GL261; assay type: cell-based; settings: compared with U87MG
[11] = system: A549 (lung carcinoma); experiment: heating + tumour treating fields + PT in vitro, A549; assay type: cell-based
Description: as §1

[12] = system: GSH in AsPC1 (Pancreatic adenocarcinoma) cells; experiment: GSH content of AsPC1 cells in vitro (GSH depletion); assay type: cell-based
Method: (§3) For rows including “TTF”, a TT-Field was applied at 200 kHz for 240 mins (from minute 0 to minute 240) for a field intensity of 1.5 μT. For rows including “HT”, hyperthermia applied was at 42 ° C. for U87MG and 52° C. for AsPC1 and A2058 for 20 minutes (from minute 120 to minute 140). For rows including “BSO”, 1 mM of buthione sulfoximine, a specific inhibitor of GSH synthesis, was added to the cell culture medium at the time the cells of the culture were seeded. When HT and TTF were applied in combination with BSO, the HT and TTF were applied 24 hours after seeding.

[13] = system: GSH in A2058 (melanoma) cells; experiment: GSH content of A2058 cells in vitro (GSH depletion); assay type: cell-based
Method: as §3

[14] = system: GSH in U87 (GBM) cells; experiment: GSH content of U87MG cells in vitro (GSH depletion); assay type: cell-based
Method: as §3

[15] = 1 mM BSO + TTF (200 kHz, 1.5 μT, 240 min) + HT (52° C., 20 min) applied 24 hours after seeding
[16] = 1 mM BSO added at seeding, BSO alone, mean ± SD, five experiments

Nc1ccn([C@@H]2O[C@H](CO)[C@@H](O)C2(F)F)c(=O)n1 [GEM, gemcitabine]
effect on viable AsPC1 cells of TTF+HT+GEM+PT [1]: eliminated the AsPC1 cells

Oc1ccc(C=Cc2cc(O)cc(O)c2)cc1 [resveratrol]
effect on cell viability for U87MG cells [2]: do not eliminate all U87MG cell growing in vitro

COc1cc(/C=C/c2ccc(O)cc2)cc(OC)c1 [pterostilbene, trans-3,5-dimethoxy-4′-hydroxystilbene]
effectiveness of therapy by heating in combination with tumour treating fields and exposure to PT [3]: also observed
effectiveness of therapy by heating in combination with tumour treating fields and exposure to PT [4]: also observed
effectiveness of therapy by heating in combination with tumour treating fields and exposure to PT [5]: also observed
effect on viable AsPC1 cells of TTF+HT+GEM+PT [1]: eliminated the AsPC1 cells
effectiveness of therapy by heating in combination with tumour treating fields and exposure to PT ([1]; AsPC-1 (pancreas carcinoma), in vitro): also observed
effectiveness of therapy by heating in combination with tumour treating fields and exposure to PT [6]: also observed
effect on viability of A2058 cells of TTF+HT+PT ([7]; 20 μM pterostilbene minute 0 to 240 + TTF 200 kHz, 1.5 μT + HT 52° C. 20 min, compared to TTF+HT): significantly reduced the viability of the cells
effectiveness of therapy by heating in combination with tumour treating fields and exposure to PT ([7]; A2058 (melanoma), in vitro): also observed
effectiveness of TTF+HT+PT therapy [8]: same effectiveness
effectiveness of therapy by heating in combination with tumour treating fields and exposure to PT [9]: also observed
effectiveness of TTF+HT+PT therapy [10]: same effectiveness
effectiveness of therapy by heating in combination with tumour treating fields and exposure to PT [11]: also observed
effect on viable U87MG cells of TTF+HT+PT [2]: effectively eliminates all cells in vitro
effect on viable U87MG cells of TTF+HT+PT ([2]; listed as PT): completely eliminates all U87MG growing cells

CC(=O)O[C@H]1C(=O)[C@@]2(C)[C@H]([C@H](OC(=O)c3ccccc3)[C@]3(O)C[C@H](OC(=O)[C@H](O)[C@@H](NC(=O)c4ccccc4)c4ccccc4)C(C)=C1C3(C)C)[C@]1(OC(C)=O)CO[C@@H]1C[C@@H]2O [PAC, (2α,4α,5β,7β,10β,13α)-4,10-Bis(acetyloxy)-13-{[(2R,3 S)-3(benzoylamino)-2-hydroxy-3-phenylpropanoyl]oxy}-1,7-dihydroxy-9-oxo-5,20-epoxytax-11-en-2-yl benzoate]
effect on viable A2058 cells of TTF+HT+PAC ([7]; 10 μM paclitaxel minute 0 to 240 + TTF 200 kHz, 1.5 μT + HT 52° C. 20 min): eliminated the cells

OC[C@H]1O[C@@H](Oc2cc(O)cc(/C=C/c3ccc(O)cc3)c2)[C@H](O)[C@@H](O)[C@@H]1O [G-diOH-s, 3-glucoside-5,4′-dihydroxystilbene]
effect on cell viability for U87MG cells [2]: significant reduction in cell viability

Buthionine sulfoximine [BSO]
GSH [12, 15]: 2.49 ± 0.66*^+ nmol/10^6 cells
GSH [12, 16]: 3.14 ± 0.79 nmol/10^6 cells
GSH [13, 15]: 2.06 ± 0.51*^+ nmol/10^6 cells
GSH [13, 16]: 2.24 ± 0.82 nmol/10^6 cells
GSH ([14]; 1 mM BSO + TTF (200 kHz, 1.5 μT, 240 min) + HT (42 °C, 20 min) applied 24 hours after seeding): 1.92 ± 0.59*^+ nmol/10^6 cells
GSH [14, 16]: 2.10 ± 0.70 nmol/10^6 cells
